Test results reported in patent publication US20260183393A1, “IMMUNOSUPPRESSANT-RESISTANT MODIFIED ALLOGENEIC MODIFIED IMMUNE CELLS AND METHODS FOR USE THEREOF” (Beam Therapeutics Inc., priority 2023, published 2026).

Key:
[1] = tested on: T cell-driven rejection of allogeneic HLA-I^+ CAR-T cells; assay: HIS mouse-driven allorejection model, 4CAR-T cell persistence; assay type: in vivo, human immune system (HIS) mice; conditions: for rejection of peripheral allogeneic HLA^+ CAR-T cells: RPM 1 mg kg-1 or TAC 10 mg kg-1 daily intraperitoneal for 2 weeks, 1- and 2-weeks post-treatment initiation
Experimental: Female (aged 6-8 weeks) NOD.Cg-Prkdc^scidIL2rg^tm1Wjl/SzJ (NSG) mice (Jackson Laboratory) were maintained in a pathogen-free facility. Briefly, to generate BLT humanized mice, NSG mice were anesthetized and whole-body irradiated (2 Gy), and then implanted with 1 mm^3 fragments of human fetal liver and thymus tissue beneath the murine kidney capsule. Following, 1×10^5 autologous fetal liver-derived CD34^+ hematopoietic stem cells (HSCs) were intravenously injected within 6 hours of transplantation. Beam Therapeutics commercially obtained female NOD-Prkdc^em26Ca52 IL2rg^em26CD22/NjuCrl (NCG) CD34^+ humanized (huNCG) mice from Charles River and female (aged 6-8 weeks) NSG-Tg(IL15)1Sz/SzJ (NSG-IL15tg) mice from Jackson Laboratory. Mice were maintained in a pathogen-free facility at CRADL. Briefly, huCD34-NCG mice were generated from female (aged 4-6 weeks) NCG mice that were myeloablated and then intravenously infused with human umbilical cord blood-derived CD34^+ stem cells from a qualified source. Humanized NK (huNK) mice were generated by supplementing the water of NSG-IL-15tg with Baytril (Bayer) for 1 week followed by whole-body irradiation (2 Gy). 5×10^6 primary human CD56^+ NK cells were then intravenously injected 24 hours later and permitted to engraft. At both facilities, mice were housed in microisolator cages and fed autoclaved food and water. Animal rooms were maintained at 72±2° F., 30-70% relative humidity and were on a 12:12 h light/dark cycle. Human reconstitution was assessed from 12-17 weeks post-transplant in BLT and huNCG mice, and 2-3 weeks post-transplant in huNK mice. […]
For the studies described in FIGS. 16A to 16J, BLT mice were used Cohort #2 (n=12) and Cohort #5 (n=13), and huNCG mice were used in Cohort #1 (n=10), Cohort #3 (n=12) and Cohort #4 (n=10). […] Persistence of 4CAR-T cells was monitored at 1-day post-T cell infusion and weekly thereafter via blood draws from the retro-orbital sinus or submandibular vein. […]

NK cells = assay: NK cell-mediated lysis of HLA class-I negative T cells with immunosuppressants; assay type: cell-based, human; conditions: 10 μg/mL; 4:1 effector-to-target ratio; 48 hours of co-culture
Experimental: The rightmost plots represent the ratio of HLA class-I negative (target cells) and positive T cells in the absence of any NK cells (effector cells) (i.e., a culture with an effector-to-target cell ratio (E:T) of 0:1 because the culture contained no effector cells and only the target cells). Primary human NK cells were activated in vitro with IL-2 and IL-15 cytokines for 72 hours. The activated NK cells were then cultured for 24 hours in the presence of rapamycin (10 μg/mL), tacrolimus (10 μg/mL), or a dimethylsulfoxide (DMSO) control. After the 24 hours, the NK cells were then co-cultured at a 4:1 effector-to-target ratio with an equal mixture of unedited HLA class-I positive (off-target cells) or beta-2-microglobulin (B2M) knock-out (HLA class-I deficient) T cells (target cells) in the presence or absence if the immunosuppressant rapamycin or tacrolimus. T cells co-cultured in the absence of NK cells (0:1 E:T ratio) were used as control. Following 48 hours of co-culture, the frequency of HLA class-I negative and positive T cells was assessed using flow cytometry by immunostaining for pan HLA class-I (ABC). The numbers within each plot indicate the percent of total cells counted falling within the indicated region, where the left regions correspond to HLA class-I negative cells and the right regions correspond to HLA class-I positive cells. […]

Compound	rejection of peripheral allogeneic HLA^+ CAR-T cells [1]	NK cell-mediated lysis of HLA class-I negative T cells (NK cells)	cumulative allogeneic HLA^+ CAR-T cell persistence ([1]; during the treatment window and post-treatment withdrawal, AUC)
CO[C@H]1C[C@@H]2CC[C@@H](C)[C@@](O)(O2)C(=O)C(=O)N2CCCC[C@H]2C(=O)O[C@H]([C@H](C)C[C@@H]2CC[C@@H](O)[C@H](OC)C2)CC(=O)[C@H](C)/C=C(\C)[C@@H](O)[C@@H](OC)C(=O)[C@H](C)C[C@H](C)/C=C/C=C/C=C/1C [rapamycin, Rapamycin]	significantly mitigated rejection	attenuated	
C=CC[C@@H]1/C=C(\C)C[C@H](C)C[C@H](OC)[C@H]2O[C@@](O)(C(=O)C(=O)N3CCCC[C@H]3C(=O)O[C@H](/C(C)=C/[C@@H]3CC[C@@H](O)[C@H](OC)C3)[C@H](C)[C@@H](O)CC1=O)[C@H](C)C[C@@H]2OC [tacrolimus, Tacrolimus]	significantly mitigated rejection	attenuated	improved cumulative allogeneic HLA^+ CAR-T cell persistence
